Data taken from patent US20050239656A1, “Pyridine compounds or salts thereof and herbicides containing the same” (priority 2002, published 2005).

How the values were obtained:
[1] = test system: barnyardgrass; test: Test Example 1: foliage treatment, upland pot test; type: in vivo, Echinochloa crus-galli L.; conditions: active ingredient 500 g/ha, observed 18th to 23rd day, 0 = non-treated, 100 = complete kill
Source text: (§1) Upland field soil was put into a 1/170,000 ha pot, and seed of various plants were sown. Then, when the plants reached predetermined leaf stages ((1) barnyardgrass: 1.3 to 2.8 leaf stages, (2) crabgrass: 1.0 to 2.8 leaf stages, (3) green foxtail: 1.3 to 2.6 leaf stages, (4) redroot pigweed: 0.1 to 1.2 leaf stages, (5) prickly sida: 0.1 to 1.2 leaf stages, (6) velvetleaf: 0.1 to 1.2 leaf stages, (7) tall morningglory: 0.1 to 1.5 leaf stages, (8) rice: 1.2 to 2.6 leaf stages, (9) wheat: 1.3 to 2.4 leaf stages, (10) corn, 2.1 to 3.2 leaf stages, (11) soybean: 0.1 to 0.4 leaf stage), a wettable powder or emulsifiable concentrate having the compound of the present invention formulated in accordance with a usual formulation method, was weighed so that the active ingredient would be a predetermined amount, and diluted with water in an amount of 500 L/ha. To the diluted solution, 0.1% (v/v) of agricultural spreader was added. The herbicide thus adjusted was applied by a small size sprayer for foliage treatment. On the 18th to 23rd days after the application of the herbicide, the growth of the respective plants was visually observed, and the herbicidal effects were evaluated by the growth controlling degrees (%) ranging from 0 (equivalent to the non-treated plot) to 100 (complete kill), whereby the results shown in Table 3, were obtained.

[2] = test system: crabgrass; test: Test Example 1: foliage treatment, upland pot test; type: in vivo, Digitaria sanguinalis L.; conditions: active ingredient 500 g/ha, observed 18th to 23rd day, 0 = non-treated, 100 = complete kill
Source text: as §1

[3] = test system: green foxtail; test: Test Example 1: foliage treatment, upland pot test; type: in vivo, Setaria viridis L.; conditions: active ingredient 500 g/ha, observed 18th to 23rd day, 0 = non-treated, 100 = complete kill
Source text: as §1

[4] = test system: redroot pigweed; test: Test Example 1: foliage treatment, upland pot test; type: in vivo, Amaranthus retroflexus L.; conditions: active ingredient 500 g/ha, observed 18th to 23rd day, 0 = non-treated, 100 = complete kill
Source text: as §1

[5] = test system: prickly sida; test: Test Example 1: foliage treatment, upland pot test; type: in vivo, Sida spinosa L.; conditions: active ingredient 500 g/ha, observed 18th to 23rd day, 0 = non-treated, 100 = complete kill
Source text: as §1

[6] = test system: rice; test: Test Example 1: foliage treatment, upland pot test; type: in vivo, Oryza sativa L.; conditions: crop, active ingredient 500 g/ha, observed 18th to 23rd day, 0 = non-treated, 100 = complete kill
Source text: as §1

[7] = test system: corn; test: Test Example 1: foliage treatment, upland pot test; type: in vivo, Zea mays L.; conditions: crop, active ingredient 500 g/ha, observed 18th to 23rd day, 0 = non-treated, 100 = complete kill
Source text: as §1

[8] = test system: soybean; test: Test Example 1: foliage treatment, upland pot test; type: in vivo, Glycine max Merr.; conditions: crop, active ingredient 500 g/ha, observed 18th to 23rd day, 0 = non-treated, 100 = complete kill
Source text: as §1

[9] = test system: barnyardgrass; test: Test Example 2: soil surface treatment, upland pot test; type: in vivo, Echinochloa crus-galli L.; conditions: active ingredient 500 g/ha, observed 20th to 28th day
Method in brief: (§2)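 Upland soil in pots of 1/170,000 ha is sown; on day 1 after sowing the formulated compound (wettable powder or emulsifiable concentrate, predetermined a.i. amount, water volume 1,500 L/ha) is applied to the soil surface with a small sprayer. Percent control is judged by eye 20–28 days later.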

[10] = test system: crabgrass; test: as above; type: in vivo, Digitaria sanguinalis L.; conditions: active ingredient 500 g/ha, observed 20th to 28th day
Method in brief: as §2

[11] = test system: green foxtail; test: as above; type: in vivo, Setaria viridis L.; conditions: active ingredient 500 g/ha, observed 20th to 28th day
Method in brief: as §2

[12] = test system: redroot pigweed; test: as above; type: in vivo, Amaranthus retroflexus L.; conditions: active ingredient 500 g/ha, observed 20th to 28th day
Method in brief: as §2

[13] = test system: prickly sida; test: as above; type: in vivo, Sida spinosa L.; conditions: active ingredient 500 g/ha, observed 20th to 28th day
Method in brief: as §2

[14] = test system: velvetleaf; test: as above; type: in vivo, Abutilon theophrasti MEDIC.; conditions: active ingredient 500 g/ha, observed 20th to 28th day
Method in brief: as §2

[15] = test system: rice; test: as above; type: in vivo, Oryza sativa L.; conditions: active ingredient 500 g/ha, observed 20th to 28th day
Method in brief: as §2

[16] = test system: corn; test: as above; type: in vivo, Zea mays L.; conditions: active ingredient 500 g/ha, observed 20th to 28th day
Method in brief: as §2

[17] = test system: soybean; test: as above; type: in vivo, Glycine max Merr.; conditions: active ingredient 500 g/ha, observed 20th to 28th day
Method in brief: as §2

[18] = test system: barnyardgrass; test: Test Example 3: paddy pot test, application under submerged conditions; type: in vivo, Echinochloa crus-galli L.; conditions: submerged application at 0.5 leaf stage, visually observed 14 days after application, 0 = non-treated, 100 = complete kill
Method in brief: (§3)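 Visual growth-control rating (0 = untreated, 100 = complete kill) 14 days after treatment. The formulated compound, as a diluted wettable powder or emulsifiable concentrate, went into 3–4 cm flood water at a predetermined active-ingredient dose once the weeds reached 0.5 leaf stage (wapato: primary leaf stage).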

[19] = test system: japanese bulrush; test: as above; type: in vivo, Scirpus juncoides; conditions: submerged application at 0.5 leaf stage, visually observed 14 days after application, 0 = non-treated, 100 = complete kill
Method in brief: as §3

[20] = test system: japanese ribbon wapato; test: as above; type: in vivo, Sagittaria pygniaea; conditions: submerged application at primary leaf stage, visually observed 14 days after application, 0 = non-treated, 100 = complete kill
Method in brief: as §3

[21] = test system: rice (var. Nihonbare); test: Test Example 3: paddy pot test, transplanted rice; type: in vivo, Oryza sativa L.; conditions: applied 4th day after transplantation, visually observed 21st day after application, 0 = non-treated, 100 = complete kill
Method in brief: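 Rice (var. Nihonbare) at 2 leaf stage transplanted 3 cm deep into puddled paddy soil under 3–4 cm flooding; on day 4 after transplanting, diluted wettable powder or emulsifiable concentrate applied by pipette under submerged conditions at a set active-ingredient dose. Growth scored visually 21 days after application, 0 (untreated) to 100 (complete kill) %.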

[22] = test system: velvetleaf; test: Test Example 1: foliage treatment, upland pot test; type: in vivo, Abutilon theophrasti MEDIC.; conditions: active ingredient 500 g/ha, observed 18th to 23rd day, 0 = non-treated, 100 = complete kill
Source text: as §1

SMILES	Growth controlling degree (%) Barnyardgrass [1] [%]	Growth controlling degree (%) Crabgrass [2] [%]	Growth controlling degree (%) Green foxtail [3] [%]	Growth controlling degree (%) Redroot pigweed [4] [%]	Growth controlling degree (%) Prickly sida [5] [%]	Growth controlling degree (%) Rice [6] [%]	Growth controlling degree (%) Corn [7] [%]	Growth controlling degree (%) Soybean [8] [%]	Growth controlling degree (%) Barnyardgrass [9] [%]	Growth controlling degree (%) Crabgrass [10] [%]	Growth controlling degree (%) Green foxtail [11] [%]	Growth controlling degree (%) Redroot pigweed [12] [%]	Growth controlling degree (%) Prickly sida [13] [%]	Growth controlling degree (%) Velvetleaf [14] [%]	Growth controlling degree (%) Rice [15] [%]	Growth controlling degree (%) Corn [16] [%]	Growth controlling degree (%) Soyabean [17] [%]	Growth controlling degree (%) Barnyardgrass ([18]; active ingredient 250 g/ha) [%]	Growth controlling degree (%) Japanese bulrush ([19]; active ingredient 250 g/ha) [%]	Growth controlling degree (%) Velvetleaf [22] [%]	other results
CC(C)C(c1cnccc1C(F)(F)F)N(C)C(=O)Cc1ccccc1[N+](=O)[O-] (stereo not shown) [I-39]	50	70	60	80	90	10	10	40	100	100	70	80	90	30	10	40	50	100	95	–	Growth controlling degree (%) Japanese ribbon wapato ([20]; active ingredient 250 g/ha): 85%; Growth controlling degree (%) Rice ([21]; active ingredient 250 g/ha): 10%
CC(C)C(c1cnccc1Cl)N(C)C(=O)Cc1cccc(F)c1F (stereo not shown) [I-72]	0	70	10	60	60	–	40	20	80	70	60	–	–	0	0	0	0	–	–	85	Growth controlling degree (%) Barnyardgrass ([18]; active ingredient 125 g/ha): 90%; Growth controlling degree (%) Japanese bulrush ([19]; active ingredient 125 g/ha): 70%; Growth controlling degree (%) Japanese ribbon wapato ([20]; active ingredient 125 g/ha): 50%; Growth controlling degree (%) Rice ([21]; active ingredient 125 g/ha): 0%
CC(Oc1ccccc1)C(=O)N(C)C(c1cnccc1C(F)(F)F)C(C)C (stereo not shown) [I-119, N-methyl-N-[2-methyl-1-(4-trifluoromethylpyridin-3-yl)propyl]2-phenoxypropionamide]	60	40	50	50	70	20	10	60	–	–	–	–	–	–	–	–	–	–	–	10	Growth controlling degree (%) Barnyardgrass ([18]; active ingredient 500 g/ha): 98%; Growth controlling degree (%) Japanese bulrush ([19]; active ingredient 500 g/ha): 100%; Growth controlling degree (%) Rice ([21]; active ingredient 500 g/ha): 20%
CC(C)C(c1cnccc1C(F)(F)F)N(C)C(=O)CC1CCCCC1 (stereo not shown) [I-164]	60	60	60	–	80	50	50	30	70	98	85	70	60	40	60	20	20	100	98	85	Growth controlling degree (%) Japanese ribbon wapato ([20]; active ingredient 250 g/ha): 0%; Growth controlling degree (%) Rice ([21]; active ingredient 250 g/ha): 10%
CC(C)C(c1cnccc1C(F)(F)F)N(C)C(=O)COc1ccc(F)cc1 (stereo not shown) [I-241]	70	95	70	–	80	20	30	80	100	98	100	90	100	70	20	40	20	100	95	80	Growth controlling degree (%) Japanese ribbon wapato ([20]; active ingredient 250 g/ha): 80%; Growth controlling degree (%) Rice ([21]; active ingredient 250 g/ha): 0%
